# Square brackets hold non-standard residues; d marks the D form. Ends that are not written are not given here.
# Assay: Inhibition of food intake, subcutaneous injection to fasted mice
# Type: in vivo, C57BL/6 mice
# Details: 20 nmoles/kg
# Protocol: Animals: All animal procedures were approved by the British Home Office Animals (Scientific Procedures) Act 1986 (Project License number 70/5516). Male C57BL/6 mice and male Wistar rats were maintained in individual cages under controlled temperature (21-23° C.) with ad libitum access to standard chow (RMI diet, SDS Ltd, Witham, Essex, UK) and to water. The light cycle was 12 hours light and 12 hours dark with ‘dawn’ at 07:00, lights full on at 07:30, ‘dusk’ at 19:00 with lights off at 19:30. These times were fixed in the animal facility, All animals were handled almost daily for on average nine days prior to the first study. During the acclimatization period, mice received two saline injections at least two days apart in order to further acclimatize to the procedure on the study days. It was found in rats that minimising the number of injections provided an optimal response, and so acclimatization injections were not used.
# Study protocol: C57BL/6 mice (20-35 g) were injected with the peptide under investigation following a 20-hour fast. Wistar rats were injected following a 24-hour fast. Typically 6 to 10 rodents were used per experimental group. Injections were typically administered at 9:00. A pre-weighed quantity of chow was presented immediately after injection. The remaining food was measured at regular time intervals (e.g. 1, 2, 3, 4, 6, 8, 24, 32 and 48 hours following injection) and food intake calculated.
# The feeding effect of the following analogue of oxyntomodulin was investigated: PEPTIDE NO: 355 [SEQ ID NO:355]. The analogue was administered at a dose of […] by subcutaneous injection to a group of fasted mice. A further group was administered saline (control). Mean cumulative food intake over the course of 4 hours is shown in comparison to saline in FIG. 40. […] The food intake suppression continues for the whole 4 hour period; that is to say that the food intake over the 4 hour period is lower than in the saline control.
# The feeding effect of the following analogue of oxyntomodulin was investigated: PEPTIDE NO: 130 [SEQ ID NO: 130]. […]
substance,measurement,setting,value
D-His Ala Gln Gly Thr Phe Thr Ser Asp Tyr Ser Lys Tyr Leu Glu Gln Glu Leu Val Lys Tyr Phe Ile Gln Trp Leu Lys Asn Ala Gly Pro Ser Lys Asn Asn Ile Ala ([dH]AQGTFTSDYSKYLEQELVKYFIQWLKNAGPSKNNIA) [PEPTIDE NO: 130],food intake suppression continues for,24 hours observed,≥ 24 h
same,Mean cumulative food intake in comparison to saline control,over 24 hours,potent and long acting suppression of food intake
same,food intake in comparison to control group treated with native oxyntomodulin,over 24 hours,lower than in the control group treated with native oxyntomodulin
